Source: ChEMBL document CHEMBL3885881, “DrugMatrix”

Species on record: Rattus norvegicus
Test: DrugMatrix - Regimen: Daily Repeat
Assay type: toxicity, organism-based, Sprague-Dawley
Set-up: regimen Daily Repeat, gender Male, age 6-8 weeks
Details: in vivo, po, route oral GAVAGE, […]; for ABSOLUTE BASOPHIL / BASOPHIL / ABSOLUTE EOSINOPHIL / ABSOLUTE LYMPHOCYTE / ABSOLUTE MONOCYTE / ABSOLUTE SEGMENTED NEUTROPHIL / EOSINOPHIL / ERYTHROCYTE COUNT / HEMATOCRIT / HEMOGLOBIN / LEUKOCYTE COUNT / LYMPHOCYTE / MEAN CORPUSCULAR HEMOGLOBIN / MEAN CORPUSCULAR HEMOGLOBIN CONCENTRATION / MEAN CORPUSCULAR VOLUME / MONOCYTE / NEUTROPHIL / NUCLEATED RED BLOOD CELLS / PLATELET COUNT: tissue Blood; for ALANINE AMINOTRANSFERASE / ALBUMIN / ALKALINE PHOSPHATASE / ASPARTATE AMINOTRANSFERASE / BLOOD UREA NITROGEN / CARBON DIOXIDE / CHLORIDE / CHOLESTEROL / CREATINE PHOSPHOKINASE / CREATININE / GLUCOSE / LACTATE DEHYDROGENASE / LIPASE / PHOSPHORUS / SODIUM / TOTAL BILIRUBIN / TOTAL PROTEIN / URIC ACID: tissue Plasma
[1] = 0 mg/kg, 72 h, dose level Control, time 3 day
[2] = 0 mg/kg, 120 h, dose level Control, time 5 day
[3] = 12 mg/kg, 72 h, dose level Low, time 3 day
[4] = 12 mg/kg, 120 h, dose level Low, time 5 day
[5] = 24 mg/kg, 72 h, dose level M1, time 3 day
[6] = 24 mg/kg, 120 h, dose level M1, time 5 day
[7] = 47 mg/kg, 72 h, dose level High, time 3 day
[8] = 47 mg/kg, 120 h, dose level High, time 5 day

Nc1nc2nc[nH]c2c(=S)[nH]1 [THIOGUANINE]
ABSOLUTE BASOPHIL [1]: 0 CELLS/uL
BASOPHIL [1]: 0%
ABSOLUTE BASOPHIL [2]: 0 CELLS/uL
BASOPHIL [2]: 0%
ABSOLUTE BASOPHIL [3]: 0 CELLS/uL
ABSOLUTE EOSINOPHIL [3]: 0 CELLS/uL
ABSOLUTE LYMPHOCYTE [3]: 1995.33 CELLS/uL
ABSOLUTE MONOCYTE [3]: 24.33 CELLS/uL
ABSOLUTE SEGMENTED NEUTROPHIL [3]: 1147 CELLS/uL
BASOPHIL [3]: 0%
EOSINOPHIL [3]: 0%
ERYTHROCYTE COUNT [3]: 5.75 x10E6/uL
HEMATOCRIT [3]: 36.93%
HEMOGLOBIN [3]: 14.27 G/DL
LEUKOCYTE COUNT [3]: 3.17 x10E3/uL
LYMPHOCYTE [3]: 50.67%
MEAN CORPUSCULAR HEMOGLOBIN [3]: 24.87 pg
MEAN CORPUSCULAR HEMOGLOBIN CONCENTRATION [3]: 38.6 G/DL
MEAN CORPUSCULAR VOLUME [3]: 64.37 fL
MONOCYTE [3]: 0.67%
NEUTROPHIL [3]: 48.67%
NUCLEATED RED BLOOD CELLS [3]: 0 /100WBC
PLATELET COUNT [3]: 1202 x10E3/uL
ALANINE AMINOTRANSFERASE [3]: 56.33 u/L
ALBUMIN [3]: 4.67 G/DL
ALKALINE PHOSPHATASE [3]: 631.67 u/L
ASPARTATE AMINOTRANSFERASE [3]: 116 u/L
BLOOD UREA NITROGEN [3]: 14.67 mg/dL
CARBON DIOXIDE [3]: 23 mmol/L
CHLORIDE [3]: 98.67 MEQ/L
CHOLESTEROL [3]: 58 mg/dL
CREATINE PHOSPHOKINASE [3]: 539.33 u/L
CREATININE [3]: 0.12 mg/dL
GLUCOSE [3]: 318 mg/dL
LACTATE DEHYDROGENASE [3]: 172 u/L
LIPASE [3]: 11.33 u/L
PHOSPHORUS [3]: 9.8 mg/dL
SODIUM [3]: 141.63 MEQ/L
TOTAL BILIRUBIN [3]: 0.17 mg/dL
TOTAL PROTEIN [3]: 6.73 G/DL
URIC ACID [3]: 1.43 mg/dL
ABSOLUTE BASOPHIL [4]: 0 CELLS/uL
ABSOLUTE EOSINOPHIL [4]: 52 CELLS/uL
ABSOLUTE LYMPHOCYTE [4]: 778 CELLS/uL
ABSOLUTE MONOCYTE [4]: 212 CELLS/uL
ABSOLUTE SEGMENTED NEUTROPHIL [4]: 8758 CELLS/uL
BASOPHIL [4]: 0%
EOSINOPHIL [4]: 0.67%
ERYTHROCYTE COUNT [4]: 4.29 x10E6/uL
HEMATOCRIT [4]: 27.5%
HEMOGLOBIN [4]: 11 G/DL
LEUKOCYTE COUNT [4]: 9.8 x10E3/uL
LYMPHOCYTE [4]: 8.33%
MEAN CORPUSCULAR HEMOGLOBIN [4]: 25.97 pg
MEAN CORPUSCULAR HEMOGLOBIN CONCENTRATION [4]: 40.5 G/DL
MEAN CORPUSCULAR VOLUME [4]: 64.23 fL
MONOCYTE [4]: 2%
NEUTROPHIL [4]: 89%
NUCLEATED RED BLOOD CELLS [4]: 0 /100WBC
PLATELET COUNT [4]: 1171.33 x10E3/uL
ALANINE AMINOTRANSFERASE [4]: 335.67 u/L
ALBUMIN [4]: 4.13 G/DL
ALKALINE PHOSPHATASE [4]: 261.67 u/L
ASPARTATE AMINOTRANSFERASE [4]: 551.67 u/L
BLOOD UREA NITROGEN [4]: 16.67 mg/dL
CARBON DIOXIDE [4]: 17.67 mmol/L
CHLORIDE [4]: 101 MEQ/L
CHOLESTEROL [4]: 60.33 mg/dL
CREATINE PHOSPHOKINASE [4]: 1296 u/L
CREATININE [4]: 0.11 mg/dL
GLUCOSE [4]: 204.67 mg/dL
LACTATE DEHYDROGENASE [4]: 625 u/L
LIPASE [4]: 9.67 u/L
PHOSPHORUS [4]: 13.37 mg/dL
SODIUM [4]: 141.53 MEQ/L
TOTAL BILIRUBIN [4]: 0.23 mg/dL
TOTAL PROTEIN [4]: 6.1 G/DL
URIC ACID [4]: 2.83 mg/dL
ABSOLUTE BASOPHIL [5]: 0 CELLS/uL
ABSOLUTE EOSINOPHIL [5]: 0 CELLS/uL
ABSOLUTE MONOCYTE [5]: 0 CELLS/uL
BASOPHIL [5]: 0%
EOSINOPHIL [5]: 0%
MONOCYTE [5]: 0%
ABSOLUTE BASOPHIL [6]: 0 CELLS/uL
ABSOLUTE EOSINOPHIL [6]: 46.33 CELLS/uL
ABSOLUTE LYMPHOCYTE [6]: 7006.33 CELLS/uL
ABSOLUTE MONOCYTE [6]: 30 CELLS/uL
ABSOLUTE SEGMENTED NEUTROPHIL [6]: 550.67 CELLS/uL
BASOPHIL [6]: 0%
EOSINOPHIL [6]: 0.67%
ERYTHROCYTE COUNT [6]: 5.49 x10E6/uL
HEMATOCRIT [6]: 33.33%
HEMOGLOBIN [6]: 13.27 G/DL
LEUKOCYTE COUNT [6]: 7.63 x10E3/uL
LYMPHOCYTE [6]: 91.67%
MEAN CORPUSCULAR HEMOGLOBIN [6]: 24.17 pg
MEAN CORPUSCULAR HEMOGLOBIN CONCENTRATION [6]: 39.8 G/DL
MEAN CORPUSCULAR VOLUME [6]: 60.83 fL
MONOCYTE [6]: 0.33%
NEUTROPHIL [6]: 7.33%
NUCLEATED RED BLOOD CELLS [6]: 0 /100WBC
PLATELET COUNT [6]: 1721.33 x10E3/uL
ALANINE AMINOTRANSFERASE [6]: 38.67 u/L
ALBUMIN [6]: 4.13 G/DL
ALKALINE PHOSPHATASE [6]: 266.67 u/L
ASPARTATE AMINOTRANSFERASE [6]: 89.33 u/L
BLOOD UREA NITROGEN [6]: 11 mg/dL
CARBON DIOXIDE [6]: 25 mmol/L
CHLORIDE [6]: 104.67 MEQ/L
CHOLESTEROL [6]: 66 mg/dL
CREATINE PHOSPHOKINASE [6]: 417.33 u/L
CREATININE [6]: 0.23 mg/dL
GLUCOSE [6]: 127.67 mg/dL
LACTATE DEHYDROGENASE [6]: 349 u/L
LIPASE [6]: 9.67 u/L
PHOSPHORUS [6]: 10.33 mg/dL
SODIUM [6]: 151.33 MEQ/L
TOTAL BILIRUBIN [6]: 0.33 mg/dL
TOTAL PROTEIN [6]: 5.97 G/DL
URIC ACID [6]: 1.17 mg/dL
ABSOLUTE BASOPHIL [7]: 0 CELLS/uL
ABSOLUTE EOSINOPHIL [7]: 53.33 CELLS/uL
ABSOLUTE LYMPHOCYTE [7]: 4257 CELLS/uL
ABSOLUTE MONOCYTE [7]: 26.67 CELLS/uL
ABSOLUTE SEGMENTED NEUTROPHIL [7]: 4229.67 CELLS/uL
BASOPHIL [7]: 0%
EOSINOPHIL [7]: 0.67%
ERYTHROCYTE COUNT [7]: 7.05 x10E6/uL
HEMATOCRIT [7]: 43.87%
HEMOGLOBIN [7]: 17.33 G/DL
LEUKOCYTE COUNT [7]: 8.57 x10E3/uL
LYMPHOCYTE [7]: 50%
MEAN CORPUSCULAR HEMOGLOBIN [7]: 24.57 pg
MEAN CORPUSCULAR HEMOGLOBIN CONCENTRATION [7]: 39.5 G/DL
MEAN CORPUSCULAR VOLUME [7]: 62.23 fL
MONOCYTE [7]: 0.33%
NEUTROPHIL [7]: 49%
NUCLEATED RED BLOOD CELLS [7]: 0 /100WBC
PLATELET COUNT [7]: 1024.33 x10E3/uL
ALANINE AMINOTRANSFERASE [7]: 35.67 u/L
ALBUMIN [7]: 3.03 G/DL
ALKALINE PHOSPHATASE [7]: 125 u/L
ASPARTATE AMINOTRANSFERASE [7]: 152.67 u/L
BLOOD UREA NITROGEN [7]: 21 mg/dL
CARBON DIOXIDE [7]: 16 mmol/L
CHLORIDE [7]: 97 MEQ/L
CHOLESTEROL [7]: 46.67 mg/dL
CREATINE PHOSPHOKINASE [7]: 4333 u/L
CREATININE [7]: 0.17 mg/dL
GLUCOSE [7]: 263.33 mg/dL
LACTATE DEHYDROGENASE [7]: 399 u/L
LIPASE [7]: 23.33 u/L
PHOSPHORUS [7]: 14.77 mg/dL
SODIUM [7]: 139.73 MEQ/L
TOTAL BILIRUBIN [7]: 0.17 mg/dL
TOTAL PROTEIN [7]: 4.33 G/DL
URIC ACID [7]: 3.1 mg/dL
ABSOLUTE BASOPHIL [8]: 0 CELLS/uL
ABSOLUTE EOSINOPHIL [8]: 0 CELLS/uL
ABSOLUTE LYMPHOCYTE [8]: 1200 CELLS/uL
ABSOLUTE MONOCYTE [8]: 72 CELLS/uL
ABSOLUTE SEGMENTED NEUTROPHIL [8]: 1128 CELLS/uL
BASOPHIL [8]: 0%
EOSINOPHIL [8]: 0%
ERYTHROCYTE COUNT [8]: 6.48 x10E6/uL
HEMATOCRIT [8]: 41.1%
HEMOGLOBIN [8]: 15.9 G/DL
LEUKOCYTE COUNT [8]: 2.4 x10E3/uL
LYMPHOCYTE [8]: 50%
MEAN CORPUSCULAR HEMOGLOBIN [8]: 24.5 pg
MEAN CORPUSCULAR HEMOGLOBIN CONCENTRATION [8]: 38.7 G/DL
MEAN CORPUSCULAR VOLUME [8]: 63.5 fL
MONOCYTE [8]: 3%
NEUTROPHIL [8]: 47%
NUCLEATED RED BLOOD CELLS [8]: 0 /100WBC
PLATELET COUNT [8]: 877 x10E3/uL
ALANINE AMINOTRANSFERASE [8]: 127 u/L
ALBUMIN [8]: 3.5 G/DL
ALKALINE PHOSPHATASE [8]: 205 u/L
ASPARTATE AMINOTRANSFERASE [8]: 290 u/L
BLOOD UREA NITROGEN [8]: 35 mg/dL
CARBON DIOXIDE [8]: 25 mmol/L
CHLORIDE [8]: 100 MEQ/L
CHOLESTEROL [8]: 56 mg/dL
CREATINE PHOSPHOKINASE [8]: 284 u/L
CREATININE [8]: 0.1 mg/dL
GLUCOSE [8]: 211 mg/dL
LACTATE DEHYDROGENASE [8]: 156 u/L
LIPASE [8]: 6 u/L
PHOSPHORUS [8]: 9.3 mg/dL
SODIUM [8]: 141.5 MEQ/L
TOTAL BILIRUBIN [8]: 0.2 mg/dL
TOTAL PROTEIN [8]: 6.1 G/DL
URIC ACID [8]: 1.5 mg/dL
